pIC50: −log10 of the molar value. “Also recorded” adds a separate entry of the source.
Legend:
GABAa receptor = test: Inhibition of 3H-RO15-1788 (3H-Flumazenil) binding to rat cortical tissue (GABAa receptor assay)
Description: Assays are carried out as described in Thomas and Tallman (J. Bio. Chem. 156: 9838-9842, J. Neurosci. 3:433-440, 1983). Rat cortical tissue is dissected and homogenized in 25 volumes (w/v) of 0.05M Tris HCl buffer (pH 7.4 at 4° C.). The tissue homogenate is centrifuged in the cold (4° C.) at 20,000×g for 20 minutes. The supernatant is decanted and the pellet is rehomogenized in the same volume of buffer and again centrifuged at 20,000× g. The supernatant is decanted and the pellet is frozen at -20° C. overnight. The pellet is then thawed and rehomogenized in 25 volume (original wt/vol) of buffer and the procedure is carried out twice. The pellet is finally resuspended in 50 volumes (w/vol of 0.05M Tris HCl buffer (pH 7.4 at […]).
Incubations contain […] of radioligand 0.5 nM (^3 H-RO15-1788[^3 H-Flumazenil] specific activity 80 Ci/mmol), drug or blocker and buffer to a total volume of […]. Incubations are carried for 30 min at 4° C. then are rapidly filtered through GFB filters to separate free and bound ligand. Filters are washed twice with fresh 0.05M Tris HCl buffer (pH 7.4 at 4° C.) and counted in a liquid scintillation counter. 1.0 mM diazepam is added to some tubes to determine nonspecific binding. Data are collected in triplicate determinations, averaged and % inhibition of total specific binding is calculated. Total Specific Binding=Total-Nonspecific. In some cases, the amounts of unlabeled drugs is varied and total displacement curves of binding are carried out. Data are converted to a form for the calculation of IC50 and Hill Coefficient (nH).

[1] = system: benzodiazepine binding site; conditions: result in words; Tallman et al., 1978; cited from earlier work
[2] = 3H-RO15-1788 0.5 nM, rat cortical tissue, 30 min at 4° C.

Structure (SMILES) | Blockade of enhancement of benzodiazepine binding by GABA agonists [1] | pIC50 (GABAa receptor; [2]) | other results
Cn1c(=O)c2nc(-c3ccccc3)oc2c2ccccc21 [5-methyl-2-phenyl-oxazolo[4,5-c]quinolin-4(5H)-one] | – | – | pIC50 (GABAa receptor; prior art compound, assay described above, unit inferred): ~4.30; activity in the assay (GABAa receptor; prior art compound, result in words): no activity; also recorded: inactive
CN1CCc2cc3c(cc2[C@H]1[C@@H]1OC(=O)c2c1ccc1c2OCO1)OCO3 [(+) bicuculline] | blocked | – | –
CN1CCc2cc3c(cc2[C@@H]1[C@H]1OC(=O)c2c1ccc1c2OCO1)OCO3 [(-) bicuculline] | much less active | – | –
COc1cccc(-c2nc3c(=O)[nH]c4ccccc4c3o2)c1 [Compound 1, 2-(3-Methoxyphenyl)-oxazolo[4,5-c]quinolin-4(5H)-one] | – | 6.22 | –
O=c1[nH]c2ccccc2c2oc(-c3ccccc3)nc12 [Compound 2, 2-Phenyl-oxazolo[4,5-c]quinolin-4(5H)-one] | – | 7.02 | –
COc1ccc(-c2nc3c(=O)[nH]c4ccccc4c3o2)cc1 [Compound 4, 2-(4-Methoxyphenyl)-oxazolo[4,5-c]quinolin-4(5H)-one] | – | 6.90 | –

From patent publication US5182290A (Neurogen Corporation, priority 1991, dated 1993)
